The subject of one assay is PMP70. The experiment in a line: Semi-quantitative RT-PCR in primary fibroblasts. To be noted: X-ALD or normal primary fibroblasts, 5 mM 4-PBA for 2 days. The format is cell-based, mouse. As for the experimental part:
(§1) Semi-quantitative RT-PCR was done on the mRNA isolated from these cells (FIG. 1). […] In addition, the expression of acyl-CoA oxidase (AOX), the rate-limiting enzyme in VLCFA β-oxidation, was not affected. Although previous studies have reported that ALDR mRNA was not detectable in fibroblasts by either northern or RT-PCR analyses, those RT-PCR studies used about 66 ng of CDNA; we used about 250 ng of cDNA.
(§2) Semi-quantitative RT-PCR analysis. Total RNA from tissue culture cells (10^6-10^7 cells/sample) was isolated using TRizol Reagent™ (Life Technologies), treated with DNase I (100-200 units in 40 mM HCI, 10 mM NaCl, 6 mM MgCl2, pH 7.3), incubated at 37° C. for 30 min, extracted with phenol/chloroform, and precipitated with isopropanol. cDNA was generated using MMLV reverse transcriptase (RT) (Life Technologies). PCR was done in the linear range of amplification (determined for each primerpair-cDNA combination). For each cDNA sample, a ‘cocktail’ was prepared, containing PCR buffer (Promega), 200 µM of each DNTP, 1.5 mM MgCl2, 250 ng cDNA, 0.25 U of Taq polymerase (Promega) and […]. The ‘cocktail’ was divided into separate tubes containing cDNA specific primers.
(§3) Primers. The PCR primers used are listed below. In the parentheses, h indicates human and m, mouse; this is followed by the gene name, product size and annealing temperature. […]

In a further assay the test system is ALDP. The experiment in a line: Semi-quantitative RT-PCR in primary fibroblasts. The format is cell-based, mouse. The settings on record: normal primary fibroblasts, 5 mM 4-PBA for 2 days. As for the experimental part:
as §1, §2, §3

A further assay deals with acyl-CoA oxidase (AOX). The assay can be described thus: Semi-quantitative RT-PCR in primary fibroblasts. The format is cell-based. The settings on record: 5 mM 4-PBA. As for the experimental part: as §1
In rodents PPARα expression is increased by peroxisomal proliferators. […] Thus, although the peroxisome proliferation response in mice may be, at least in part, through the documented PPARα pathway, the response in human cells seems to be through a newly discovered pathway that may involve Pex11α. […] This again indicates a newly discovered pathway for 4-PBA-induced peroxisome proliferation in humans and perhaps in rodents. AOX has been identified as the rate-limiting step in VLCFA β-oxidation.
as §2
Primers. The PCR primers used are listed below. In the parentheses, h indicates human and m, mouse; this is followed by the gene name, product size and annealing temperature. For primer sequences, F is forward and R is reverse. […]

For assay [1], the system named is human primary fibroblasts derived from X-ALD patients. The assay can be described thus: VLCFA (C24:0, C26:0) levels in cultured cells, capillary GC. The assay is classed as cell-based. From the text:
The genotypes of the X-ALD patients included missense, nonsense, frame shift and deletion mutations and all of the main clinical phenotypes.
After two days of treatment, a time-dependent reduction in VLCFA levels in human and mouse X-ALD cell lines was observed. In human lymphoblastoid cells and mouse fibroblasts, C24:0 and C26:0 levels were normalized within 10 days of treatment, In human X-ALD fibroblasts, C24:0 levels were normalized within 10 days, whereas C26:0 levels were reduced by 47% after 22 days. The results obtained were independent of genotype or phenotype.
Cell culture and 4-PBA treatment. Cell lines derived from X-ALD patients and X-ALD mice were grown in MEM (fibroblasts) or RPMI (ymphoblastoid cells) supplemented with fetal calf serum (10%), penicillin (100 U/ml), streptomycin (100 U/mi) and glutamine (2 mM). […]
Biochemical measurements. […] C24:0 β-oxidation activity of human and mouse fibroblasts and human lymphoblastoid cells was determined by measuring their capacity to degrade [1-^14C]-C24:0 fatty acid (American Radiolabeled Chemicals, St Louis, Mo.) to water-soluble products as described. Phytanic acid oxidation was measured as described. Cells were incubated with [2,3-^3H]-phytanic acid for 24 hours, and the release of ^3H-H2O to the aqueous medium was determined (activity in pmol/hr per mg protein).

“Also recorded” adds a separate entry of the source.

For the compound `O=C(O)CCCc1ccccc1` [4-PBA, 4-Phenyl butyrate], the PMP70 expression level entry with PMP70 is recorded as “little, if any, effect”. In the assay with ALDP, the “ALDP expression (mRNA)” value is “little, if any, effect”. For the same compound, the AOX expression entry in the assay with acyl-CoA oxidase (AOX) (human fibroblasts, 2 days) is listed as “not affected; also recorded: unchanged”; with acyl-CoA oxidase (AOX) (human fibroblasts, 10 days) it was “remained unchanged”; in the assay on acyl-CoA oxidase (AOX) (mouse fibroblasts, 2 days), “not affected; also recorded: unchanged”. For the same compound, the “C26:0 levels reduced by” value in assay [1] (5 mM 4-PBA, after 22 days) worked out at 47%. Moreover, in assay [1] (between 1 mM and 5 mM 4-PBA, human X-ALD fibroblasts and lymphoblastoid cells, data not shown), the “effect of concentration on VLCFA levels” value is on record as “dose-dependent decrease”.

Source of the values: patent publication US6458838B1, “Adrenoleukodystrophy treatments” (Johns Hopkins University, priority 1999, dated 2002).
